From publication PMC8815882, “Screening the pandemic response box identified benzimidazole carbamates, Olorofim and ravuconazole as promising drug candidates for the treatment of eumycetoma” (PLoS Neglected Tropical Diseases, 2022)
In brackets after ≈: the same amount, converted by molar mass. Like-named read-outs stand apart in the source and are kept apart here.

Tests used:
[1] = tested on: M. mycetomatis genome strain MM55; design: method as in PMID 29698504; conditions: parasitic DHODH inhibitors of the MMV Pathogen Box screened previously; cited from earlier work
[2] = tested on: M. pseudomycetomatis strain Mex2A; assay: CLSI M38-A2 based in vitro susceptibility screening at 25 μM; type: cell-based, Madurella pseudomycetomatis; conditions: selected if >75% (resazurin) or >80% (XTT) fungal growth inhibited
[3] = tested on: F. senegalensis strain CBS132257; assay: as above; type: cell-based, Falciformispora senegalensis; conditions: selected if >75% (resazurin) or >80% (XTT) fungal growth inhibited
[4] = tested on: Me. romeroi strain CBS128765; assay: as above; type: cell-based, Medicopsis romeroi; conditions: selected if >75% (resazurin) or >80% (XTT) fungal growth inhibited
eumycetoma = conditions: cited from earlier work
[5] = tested on: M. mycetomatis genome strain MM55; assay: CLSI M38-A2 based in vitro susceptibility screening (XTT or resazurin), growth at fixed concentration; type: cell-based, Madurella mycetomatis
M. mycetomatis MM55 = assay: IC50 determination, 2-fold dilution series 16 to 0.03125 μM; type: cell-based, Madurella mycetomatis; conditions: for IC50 / IC90: Madurella mycetomatis
[6] = tested on: ten different M. mycetomatis isolates; design: method as in PMID 24945848, PMID 22964246, PMID 31904836; conditions: asterisk: determined in previous works ref 19-21; cited from earlier work
[7] = tested on: M. tropicana strain CBS206.47; assay: CLSI M38-A2 based in vitro susceptibility screening at 25 μM; type: cell-based, Madurella tropicana; conditions: selected if >75% (resazurin) or >80% (XTT) fungal growth inhibited
[8] = tested on: ten different M. mycetomatis isolates; assay: MIC / MIC50 determination (XTT) in ten M. mycetomatis isolates; type: cell-based, Madurella mycetomatis; conditions: Madurella mycetomatis
[9] = tested on: M. mycetomatis isolate MM55; assay: M. mycetomatis grain infection model in G. mellonella larvae, survival; type: in vivo, Galleria mellonella; design: In vivo efficacy, Larvae survival %: concentration or dose not given beside the values; conditions: for Larvae survival rate on day ten: 20 μM per larvae at 4, 28, 52 h after infection; for Larvae survival rate on day ten / Effect on larvae survival Day 10 (words): day ten
[10] = Madurella mycetomatis, mean, read-out: Percentage survival at 25um, 25 uM mean
[11] = Madurella mycetomatis, replicate A, read-out: Percentage survival at 25um, 25 um A
[12] = Madurella mycetomatis, replicate B, read-out: Percentage survival at 25um, 25 uM B
[13] = Madurella mycetomatis, replicate C, read-out: Percentage survival at 25um, 25 uM C
[14] = Madurella mycetomatis, 100 uM, mean, read-out: Percentage survival at 100um, 100 uM mean
[15] = Madurella mycetomatis, 100 uM, replicate (first column), read-out: Percentage survival at 100um, 100 uM A
[16] = Madurella mycetomatis, 100 uM, replicate (second column), read-out: Percentage survival at 100um, 100 uM A
[17] = Madurella mycetomatis, 100 uM, replicate (third column), read-out: Percentage survival at 100um, 100 uM A
[18] = MM55, Table 2, M. mycetomatis MM55, read-out: IC50
[19] = MM55, mean, read-out: IC50 mean
[20] = MM55, replicate 1, read-out: IC50 1
[21] = MM55, replicate 1, read-out: IC90 1
[22] = MM55, replicate 2, read-out: IC50 2
[23] = MM55, replicate 2, read-out: IC90 2
[24] = MM55, replicate 3, read-out: IC50 3
[25] = MM55, replicate 3, read-out: IC90 3
[26] = G. mellonella larvae infected with M. mycetomatis

Cc1ccc(NC(=O)c2cc(S(=O)(=O)NC(C)(C)C)ccc2C)nc1 [MMV020289]
In vitro activity against M. mycetomatis [1]: no activity

CN(C/C=C/C#CC(C)(C)C)Cc1cccc2ccccc12 [Terbinafine]
Inhibits growth of Madurella pseudomycetomatis at 25 μM [2]: not the Madurella species | Inhibits growth of Falciformispora senegalensis at 25 μM [3]: inhibit the growth | Inhibits growth of Medicopsis romeroi at 25 μM [4]: inhibit the growth | Cure rate of patients (eumycetoma; Senegal, 500 mg twice daily for 24-48 weeks combined with surgery): 30%

CC(C)C(NC(=O)Cc1cccc2ccccc12)C(=O)Nc1cccc(C#N)c1 (stereo not shown) [MMV020591]
In vitro activity against M. mycetomatis [1]: no activity

Cc1cc(Nc2ccc(C(F)(F)F)cc2)n2ccnc2n1 [MMV011229]
In vitro activity against M. mycetomatis [1]: no activity

O=C(NC1CC1)c1ccc(N2CCOc3ccc(Cl)cc32)s1 [MMV020537]
In vitro activity against M. mycetomatis [1]: no activity

CCC(C)n1ncn(-c2ccc(N3CCN(c4ccc(OCC5COC(Cn6cncn6)(c6ccc(Cl)cc6Cl)O5)cc4)CC3)cc2)c1=O (stereo not shown) [MMV637528, Itraconazole, reference compound]
activity at 25 µM [5, 10]: -1.04% | activity at 25 µM [5, 11]: -2.88% | activity at 25 µM [5, 12]: -2.55% | activity at 25 µM [5, 13]: 2.31% | activity at 100 µM [5, 14]: 2.34% | activity at 100 µM [5, 15]: -3.71% | activity at 100 µM [5, 16]: 3.66% | activity at 100 µM [5, 17]: 7.05% | Inhibits growth of Falciformispora senegalensis at 25 μM [3]: did not inhibit the growth | Inhibits growth of Medicopsis romeroi at 25 μM [4]: did not inhibit the growth | IC50 (M. mycetomatis MM55; [18]): 1.13 µM | IC50 (M. mycetomatis MM55; [19]): 1.13 µM | IC90 (M. mycetomatis MM55; MM55, read-out: IC90 mean): 2.21 µM | IC50 (M. mycetomatis MM55; [20]): 1.7 µM | IC90 (M. mycetomatis MM55; [21]): 3.8 µM | IC50 (M. mycetomatis MM55; [22]): 0.74 µM | IC90 (M. mycetomatis MM55; [23]): 1.32 µM | IC50 (M. mycetomatis MM55; [24]): 0.94 µM | IC90 (M. mycetomatis MM55; [25]): 1.5 µM | MIC50 [6]: 0.05 µM (≈ 0.0353 µg/mL) | MIC range [6]: <0.02 to 0.25 µM | Cure rate of patients (eumycetoma; eumycetoma patients, itraconazole with surgery): 8% - 26%

COC(=O)Nc1nc2ccc(Sc3ccccc3)cc2[nH]1 [MMV003143, Fenbendazole]
Inhibits growth of Madurella mycetomatis at 25 μM ([5]; 25 μM, selected if >75% (resazurin) or >80% (XTT) fungal growth inhibited): inhibit the growth | activity at 25 µM [5, 10]: 2.38% | activity at 25 µM [5, 11]: -0.759% | activity at 25 µM [5, 12]: 3.53% | activity at 25 µM [5, 13]: 4.38% | activity at 100 µM [5, 14]: 7.16% | activity at 100 µM [5, 15]: 0.376% | activity at 100 µM [5, 16]: 9.19% | activity at 100 µM [5, 17]: 11.9% | Inhibits growth of Madurella pseudomycetomatis at 25 μM [2]: inhibit the growth | Inhibits growth of Madurella tropicana at 25 μM [7]: inhibit the growth | Inhibits growth of Falciformispora senegalensis at 25 μM [3]: inhibit the growth | Inhibits growth of Medicopsis romeroi at 25 μM [4]: inhibit the growth | Drug static or cidal (M. mycetomatis MM55): Static | IC50 (M. mycetomatis MM55; [18]): 2.66 µM | IC50 (M. mycetomatis MM55; MM55, Table 3, benzimidazole carbamates, M. mycetomatis, read-out: IC50): 2.66 µM | IC50 (M. mycetomatis MM55; [19]): 2.66 µM | IC90 (M. mycetomatis MM55; MM55, read-out: IC90 mean): 9.09 µM | IC50 (M. mycetomatis MM55; [20]): 2.58 µM | IC90 (M. mycetomatis MM55; [21]): 17 µM | IC50 (M. mycetomatis MM55; [22]): 2.52 µM | IC90 (M. mycetomatis MM55; [23]): 4.6 µM | IC50 (M. mycetomatis MM55; [24]): 2.88 µM | IC90 (M. mycetomatis MM55; [25]): 5.68 µM | MIC50 ([8]; Table 3 and Fig 5, benzimidazole carbamates, M. mycetomatis, read-out: MIC50): 0.5 µM (≈ 0.15 µg/mL) | MIC50 ([8]; median MIC over ten M. mycetomatis isolates, no asterisk, read-out: MIC50): 2 µM (≈ 0.599 µg/mL) | MIC50 ([8]; over the isolates tested, read-out: MIC50 mean): 0.5 µM (≈ 0.15 µg/mL) | MIC ([8]; isolate CBS247.48, read-out: MIC CBS247.48): 0.5 µM (≈ 0.15 µg/mL) | MIC ([8]; isolate MM14, read-out: MIC MM14): 0.5 µM (≈ 0.15 µg/mL) | MIC ([8]; isolate MM45, read-out: MIC MM45): 0.5 µM (≈ 0.15 µg/mL) | MIC ([8]; isolate MM55, read-out: MIC MM55): 0.5 µM (≈ 0.15 µg/mL) | MIC ([8]; isolate P1, read-out: MIC P1): 0.5 µM (≈ 0.15 µg/mL) | MIC ([8]; isolate ParijsAl1, read-out: MIC ParijsAl1): 0.5 µM (≈ 0.15 µg/mL) | MIC ([8]; isolate Peru72012, read-out: MIC Peru72012): 0.5 µM (≈ 0.15 µg/mL) | MIC ([8]; isolate So1, read-out: MIC So1): 2 µM (≈ 0.599 µg/mL) | MIC ([8]; isolate i1, read-out: MIC i1): 0.25 µM (≈ 0.0748 µg/mL) | MIC ([8]; isolate i11, read-out: MIC i11): 1 µM (≈ 0.299 µg/mL) | Larvae survival rate on day ten [9]: 24.4% | Effect on larvae survival Day 4 (words) ([9]; 20 μM per larvae, vs infected control, day four): Increase survival | Effect on larvae survival Day 10 (words) ([9]; 20 μM per larvae, vs infected control): Increase survival | Effect on larvae survival Day 10 (words) ([9]; 20 μM per larvae, vs infected control, listed as fenbendazole): able to increase larvae survival | In vivo efficacy, Enhanced survival compared to control? ([9]; in vivo): yes * | In vivo efficacy, Larvae survival % ([9]; in vivo): 24.4%

Cc1cc(-c2ccccc2)c(C(=O)C(=O)Nc2ccc(N3CCN(c4ncc(F)cn4)CC3)cc2)n1C [MMV1782354, Olorofim]
activity at 25 µM ([5]; Madurella mycetomatis, mean of three, M. mycetomatis MM55, read-out: Percentage survival at 25um, 25 uM mean): 8.22% | activity at 25 µM ([5]; Madurella mycetomatis, replicate A, M. mycetomatis MM55, read-out: Percentage survival at 25um, 25 um A): 5.03% | activity at 25 µM ([5]; Madurella mycetomatis, replicate B, M. mycetomatis MM55, read-out: Percentage survival at 25um, 25 uM B): 11.4% | activity at 25 µM ([5]; Madurella mycetomatis, replicate C, M. mycetomatis MM55, read-out: Percentage survival at 25um, 25 uM C): 8.27% | activity at 100 µM ([5]; Madurella mycetomatis, 100 uM, mean of three, M. mycetomatis MM55, read-out: Percentage survival at 100um, 100 uM mean): 8.8% | activity at 100 µM ([5]; Madurella mycetomatis, 100 uM, replicate 1, M. mycetomatis MM55, read-out: Percentage survival at 100um, 100 uM A (first replicate column)): 0.903% | Percent fungal survival at 100 µM ([5]; Madurella mycetomatis, 100 uM, replicate 2, M. mycetomatis MM55, read-out: Percentage survival at 100um, 100 uM A (second replicate column)): 10.2% | activity at 100 µM ([5]; Madurella mycetomatis, 100 uM, replicate 3, M. mycetomatis MM55, read-out: Percentage survival at 100um, 100 uM A (third replicate column)): 15.3% | Inhibits growth of Madurella pseudomycetomatis at 25 μM [2]: able to inhibit the growth | Inhibits growth of Madurella tropicana at 25 μM [7]: able to inhibit the growth | Inhibits growth of Falciformispora senegalensis at 25 μM [3]: no activity | Inhibits growth of Medicopsis romeroi at 25 μM [4]: no activity | Drug static or cidal (M. mycetomatis MM55; M. mycetomatis): Cidal | IC50 (M. mycetomatis MM55; [18]): < 0.016 µM | IC50 (M. mycetomatis MM55; MM55, mean of replicates, read-out: IC50 mean): < 0.098 µM | IC50 (M. mycetomatis MM55; MM55, replicate 1, read-out: IC50 1 um): < 0.098 µM | IC90 (M. mycetomatis MM55; MM55, replicate 1, read-out: IC90 1 um): 3.1 µM | IC50 (M. mycetomatis MM55; MM55, replicate 2, read-out: IC50 2 um): < 0.098 µM | IC90 (M. mycetomatis MM55; MM55, replicate 2, read-out: IC90 2 um): < 0.098 µM | IC50 (M. mycetomatis MM55; MM55, replicate 3, read-out: IC50 3 um): < 0.098 µM | IC90 (M. mycetomatis MM55; MM55, replicate 3, read-out: IC90 3 um): < 0.098 µM | Larvae survival rate on day ten ([9]; listed as Olorofim): 33% | Larvae survival rate on day ten ([9]; listed as olorofim): 33.3% | In vivo efficacy, Enhanced survival compared to control? [9, 26]: yes ** | In vivo efficacy, Larvae survival % [9, 26]: 0.0443% | MIC50 [6]: 0.06 µM (≈ 0.0299 µg/mL) | MIC range [6]: 0.004 to 0.13 µM
